Legend:
TrkB [1] = assay: TrkB activation in cortical neurons from knockout mouse pups; type: cell-based; conditions: wild-type cortical neurons (pups of TrkB +/− mice)
Experimental: (§1) To determine whether an identified active compound selectively activates TrkB receptor and prevents neuronal cell death, cortical neurons are prepared from homozygous pups of TrkB +/− mice, which are mated to the same genotype. The activation of TrkB and down stream indicators of TrkB activation, such as Capase-3, are monitored. To further assess whether an identified active compound blocks neuronal apoptosis in a TrkB dependent manner, cortical neurons are prepared from homozygous pups of […], which are mated to the same genotype. Again, the activation of TrkB and down stream indicators of TrkB activation, such as Capase-3, are monitored.
(§2) Additionally, the spontaneous caspase-3 activation in […] was suppressed by deoxygedunin.

caspase-3 = assay: Caspase-3 activation in cortical neurons from knockout mouse pups; type: cell-based
Experimental: as §1, §2

mice = assay: Forced swim test; type: in vivo, mouse
Experimental: To explore whether an identified active compound has an antidepressant effect like BDNF, a forced swim test is conducted. Adult male mice (2-3 months old) are randomly submitted, without a pre-swim, to a forced swim test of 6 minutes with immobility recorded in the last 4 minutes. The mice are injected intraperitoneally for 5 days with saline, imipramine (20 mg/kg), amitryptyline (15 mg/kg), or an identified active compound (5 mg/kg). The mice are allowed to adapt to the test room for 2 days, and the mice are placed in a clear glass cylinder with a diameter of 16 cm, half-filled with clear water at 24° C.
To investigate whether deoxygedunin mimicked BDNF in suppressing depression-like symptoms, a forced swim test after subchronic treatment of the mice for 5 days with various drugs was conducted. […] To assess whether the behavior responses by 7,8-DHF and deoxygedunin were mediated by TrkB receptor, TrkB F616A knockin mice were used. The transgenic mice were subjected to saline or 1NMPP1 treatment, respectively.

TrkA = TrkA (Mus musculus, UniProt Q3UFB7); assay: TrkA activation in cortical neurons from knockout mouse pups; type: cell-based; parameters: endogenous in cells; host or cells: primary cortical neurons from mouse pups; conditions: cortical neurons (pups of TrkB +/− mice)
TrkA, sequence (Q3UFB7 34-799): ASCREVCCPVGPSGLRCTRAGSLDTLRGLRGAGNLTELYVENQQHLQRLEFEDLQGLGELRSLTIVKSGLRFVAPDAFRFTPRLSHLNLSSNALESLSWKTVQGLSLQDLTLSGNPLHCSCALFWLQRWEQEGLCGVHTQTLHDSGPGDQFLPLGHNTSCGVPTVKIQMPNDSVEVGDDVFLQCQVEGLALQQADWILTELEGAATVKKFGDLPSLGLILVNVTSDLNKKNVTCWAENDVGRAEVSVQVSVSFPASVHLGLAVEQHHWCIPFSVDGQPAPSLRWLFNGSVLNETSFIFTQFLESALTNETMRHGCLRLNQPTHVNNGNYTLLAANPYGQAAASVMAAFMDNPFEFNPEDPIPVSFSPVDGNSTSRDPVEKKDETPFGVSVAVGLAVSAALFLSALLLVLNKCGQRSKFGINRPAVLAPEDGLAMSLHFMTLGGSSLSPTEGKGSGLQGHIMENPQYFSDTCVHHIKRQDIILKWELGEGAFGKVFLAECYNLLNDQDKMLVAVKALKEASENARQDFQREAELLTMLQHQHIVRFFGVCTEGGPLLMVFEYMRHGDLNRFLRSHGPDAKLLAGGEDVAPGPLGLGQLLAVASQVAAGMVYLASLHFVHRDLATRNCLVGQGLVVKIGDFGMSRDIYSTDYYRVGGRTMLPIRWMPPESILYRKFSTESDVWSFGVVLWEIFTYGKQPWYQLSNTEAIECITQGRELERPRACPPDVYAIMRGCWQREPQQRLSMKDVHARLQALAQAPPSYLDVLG

TrkB F616A = biological target: T1, TrkB F616A (Mus musculus, UniProt P15209, F616A); assay: TrkB phosphorylation in cortical neurons from TrkB F616A knockin mice; type: cell-based; conditions: inhibitor pretreatment
T1 construct: cortical neurons from TrkB F616A knockin mice; endogenous in cells; host or cells: primary cortical neurons from TrkB F616A knock-in mice
T1 sequence (P15209 32-821 F616A): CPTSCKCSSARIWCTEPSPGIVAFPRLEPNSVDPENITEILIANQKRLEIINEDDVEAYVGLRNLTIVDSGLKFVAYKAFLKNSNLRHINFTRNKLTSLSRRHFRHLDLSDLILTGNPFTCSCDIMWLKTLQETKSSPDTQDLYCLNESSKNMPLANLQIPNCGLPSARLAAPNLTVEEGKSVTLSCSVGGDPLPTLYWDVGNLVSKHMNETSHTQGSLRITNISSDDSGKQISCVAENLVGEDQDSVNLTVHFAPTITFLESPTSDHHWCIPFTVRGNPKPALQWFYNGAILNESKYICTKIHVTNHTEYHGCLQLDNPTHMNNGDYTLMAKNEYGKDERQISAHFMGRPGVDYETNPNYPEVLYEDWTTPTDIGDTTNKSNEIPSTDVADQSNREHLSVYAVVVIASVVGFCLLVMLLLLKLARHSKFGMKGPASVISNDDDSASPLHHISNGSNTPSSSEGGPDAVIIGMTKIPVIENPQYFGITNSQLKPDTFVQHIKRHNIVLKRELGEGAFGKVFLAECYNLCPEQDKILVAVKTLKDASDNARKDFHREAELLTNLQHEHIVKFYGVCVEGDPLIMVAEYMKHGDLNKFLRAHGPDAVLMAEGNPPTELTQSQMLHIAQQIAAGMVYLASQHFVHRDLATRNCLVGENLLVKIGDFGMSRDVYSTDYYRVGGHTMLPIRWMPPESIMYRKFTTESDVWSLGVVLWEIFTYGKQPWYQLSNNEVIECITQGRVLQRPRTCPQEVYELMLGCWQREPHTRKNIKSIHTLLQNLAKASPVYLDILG
Experimental: (§3) To explore whether the neuroprotective action of an identified active compound is dependent on TrkB activation in vivo, TrkB F616A knockin mice are used. […] To further assess whether an identified active compound can mimic BDNF, cortical neurons are prepared from TrkB F616A knockin mice. The cortical neurons are pretreated for 30 minutes with either K252a Trk tyrosine kinase inhibitor (100 nM) or 1NMPP1 inhibitor (100 nM) followed by 0.5 μM identified active compound for 30 minutes.
(§4) […] inversely correlated with TrkB activation by deoxygedunin (FIG. 20, top and middle panels).

Akt and Erk1/2 = Akt and Erk1/2 activation in cortical neurons from TrkB F616A knockin mice; type: cell-based, mouse
Experimental: as §3, §4

TrkB F616A knockin mice = assay: KA-provoked apoptosis (caspase-3) in TrkB F616A knockin mice; type: in vivo, mouse
Experimental: To determine if 1NMPP1 makes neurons treated with an identified active compound vulnerable to KA-provoked neuronal cell death, TrkF616A knockin mice are fed with 1NMPP1 (25 mM) in drinking water one day prior to pharmacological reagent treatment. The next day, the mice are intraperitoneally injected with KA (25 mg/kg), or an identified active compound (5 mg/kg) 4 hours prior to KA injection. The control mice are injected with either KA or an identified active compound alone, or the mice are administered an identified active compound 4 hours before KA. After 4 days, the mice are sacrificed and the brains are homogenized and ultracentrifuged. The supernatant then is employed for SDS-PAGE and immunoblotting analysis.
as §4

hippocampal neurons [2] = assay: Glutamate-triggered apoptosis in hippocampal neurons (MR(DEVD)2 / condensed nuclei); type: cell-based; conditions: 0.5 μM preincubated 30 min, then 50 μM glutamate 16 h
Experimental: To create and test reporter cell lines. In order to identify small molecules that mimic BDNF and activate TrkB, TrkB stably transfected murine cell lines are created. The T48 and T62 cell lines are created by transfecting basal forebrain SN56 cells, which express negligible TrkB, with a TrkB expression construct. To test expression of TrkB, the cells are treated with BDNF, which is predicted to result in strong phosphorylation of Trk-490 and Akt activation in comparison to the TrkA NTR stably expressing T17 cell line indicating expression of TrkB. To test resistance to apoptosis, the SN56 cells and the T48 cell line are either untreated or treated with BDNF, and then are subjected to an apoptotic assay. The apoptotic assay involves treating the cells with 0.75 μM Staurosporine for 9 hours, and 1 hour before completing the experiment, the cells are treated with 10 μM MR (DEVD)2. The cells then are fixed with 4% paraformaldehyde for 15 minutes, washed with phosphate buffered saline (PBS), and incubated with Hoechst 33342 for 10 minutes. Cover slides are washed with PBS, mounted, and then the cells are examined using a fluorescent microscope to see which cells turn red upon caspase cleavage.
To compare the apoptosis inhibitory activity of identified active compounds, the compounds are preincubated with SN56 and T48 cells, and subsequently are subjected to the fluorescent apoptotic assay as described above. To examine whether these identified active compounds promote neuronal survival, hippocampal neurons are prepared and the cultures are pretreated with the identified active compounds for 30 minutes, followed by treatment with 50 μM glutamate for 16 hours.
Using a cell-based screen as described above in Example 1 (based on the anti-apoptotic action of TrkB signaling) and the chemical library from the Spectrum Collection (described above), 66 positive hits were generated, four of which were gedunin derivatives. […] In this assay, neurons with both cleaved caspase (MR (DEVD)2 red cells) and condensed nuclei (DAPI staining) were counted as apoptotic cells. […]

hippocampal neurons [3] = assay: Oxygen-glucose deprivation (OGD) apoptosis in hippocampal neurons; type: cell-based; conditions: apoptotic ratio compared to BDNF and DMSO
TrkB [4] = assay: TrkB phosphorylation in hippocampal neurons (immunofluorescent staining, immunoblotting); type: cell-based; conditions: K252a pretreatment of hippocampal neurons
Experimental: Unless specifically described, primary hippocampal neurons are seeded on poly-L lysine coated coverslips in a 12-well plate. After 7 days in vitro, the neurons are treated with 100 ng/ml BDNF or variety of flavone compounds (1 μM) for 30 minutes, and then are washed with PBS. Cells are fixed with 3% formaldehyde in PBS at room temperature for 10 minutes. The cells then are permeabilized and blocked by 0.4% Triton X-100 and 2% FBS in PBS at room temperature for 15 minutes, are washed with PBS three times, and are treated with anti-MAP2 (1:200) and anti-phospho-TrkB antibodies (1:500). After staining with FITC- or Rhodamine-conjugated secondary antibody, the coverslips are mounted on slides. Fluorescent images are taken by a fluorescence microscope.
BDNF binding to TrkB induces its autophosphorylation and, subsequently, activation of downstream kinase pathways including MAPK and PI3/Akt. […] To examine whether an identified active compound stimulates TrkB-mediated downstream signaling cascades, Western analysis is performed and the activation of Akt and Erk also is monitored. […] To probe the time course of TrkB activation triggered by an identified active compound, hippocampal neurons are treated with an identified active compound at 500 nM and phosphorylation of Erk and Akt is determined over time by Western analysis. […]

Erk1/2 and Akt = Erk1/2 and Akt activation in hippocampal neurons (Western blot); type: cell-based; conditions: K252a pretreatment of hippocampal neurons
Experimental: BDNF binding to TrkB induces its autophosphorylation and, subsequently, activation of downstream kinase pathways including MAPK and PI3/Akt. To explore whether an identified active compound triggers TrkB activation, immunofluorescent staining on hippocampal neurons with anti-phospho TrkB antibody is conducted. To examine whether an identified active compound stimulates TrkB-mediated downstream signaling cascades, Western analysis is performed and the activation of Akt and Erk also is monitored. To test whether the stimulatory effect of an identified active compound is mediated through TrkB, cells are either untreated or treated with K252a, a selective inhibitor of the tyrosine kinase activity of the Trk family of neutrophin receptors. Cells treated with K252a block TrkB tyrosine phosphorylation in cells exposed to an identified active compound. To probe the time course of TrkB activation triggered by an identified active compound, hippocampal neurons are treated with an identified active compound at 500 nM and phosphorylation of Erk and Akt is determined over time by Western analysis. Whether stimulation of Erk and Akt by an identified active compound occurs in a dose dependent manner also is determined.
Both Akt and Erk1/2 were robustly activated by these molecules as well). […] The minimal required drug concentration was about 100-250 nM (see FIG. 7, right panels). […] To assess whether deoxygedunin provokes TrkB activation in the brain, mice (i.p.) were injected with a dose of 5 mg/kg for various time points. […] To establish that deoxygedunin is orally bioactive in provoking TrkB activation, two to three month old C57BL/6J mice were orally injected with various doses of 7,8-dihydroxyflavone or deoxygedunin then sacrificed 2 to 4 hours after administration. Brain lysates were prepared and analyzed by immunoblotting (see FIG. 10).

Row | SMILES | TrkB activation (TrkB [1]) | blockade of glutamate-provoked caspase-3 activation (caspase-3; wild-type cortical neurons) | TrkA activation (TrkA) | blockade of BDNF-provoked TrkB phosphorylation (TrkB F616A) | blockade of deoxygedunin provoked TrkB phosphorylation (TrkB F616A) | blockade of BDNF-triggered Akt and Erk1/2 activation (Akt and Erk1/2) | blockade of glutamate-provoked caspase-3 activation (caspase-3; TrkB −/− cortical neurons) | further results
1 | CN(C)CCCN1c2ccccc2CCc2ccccc21 [imipramine, reference compound] | not imipramine | failed to block caspase-3 activation | not imipramine | – | – | – | – | swimming immobility (mice; mice, subchronic treatment 5 days, imipramine 20 mg/kg, deoxygedunin 5 mg/kg): significantly decreased
2 | CC(C)(C)n1nc(Cc2cccc3ccccc23)c2c(N)ncnc21 [1NMPP1] | – | – | – | selectively blocked | selectively blocked | blocked BDNF-triggered Akt and Erk1/2 activation | – | effect on Akt and Erk1/2 activation by deoxygedunin (Akt and Erk1/2): diminished Akt and Erk1/2 activation; effect of 1NMPP1 pretreatment on deoxygedunin's protective effect (TrkB F616A knockin mice; F616A mice, KA): diminished deoxygedunin's protective effect; effect of 1NMPP1 pretreatment on KA-provoked apoptosis (TrkB F616A knockin mice; TrkB F616A mice): elevated KA-provoked apoptosis; immobility time, 1NMPP1-treated versus saline (mice; TrkB F616A knockin mice, no test drug): No significant difference
3 | CN(C)CCC=C1c2ccccc2CCc2ccccc21 [amitriptyline] | activated both TrkA and TrkB | weakly suppressed caspase-3 activation | activated both TrkA and TrkB | – | – | – | weakly suppressed caspase-3 activation | –
4 | CC(=O)O[C@@H]1CC2C(C)(C)C(=O)CC[C@]2(C)C2CC[C@]3(C)C(=CC(=O)O[C@H]3c3ccoc3)[C@@]21C (some centres unmarked) [dihydrodeoxygedunin] | – | – | – | – | – | – | – | protective effect (apoptosis inhibitory activity) (hippocampal neurons [2]): protective effect; protective effects on hippocampal neurons under OGD (hippocampal neurons [3]): potent protective effects
5 | O=c1cc(-c2ccccc2)oc2c(O)c(O)ccc12 [7,8-dihydroxyflavone] | selectively activated TrkB | substantially blocked | not TrkA | – | – | – | not TrkB −/− neurons | –
6 | COC(=O)[C@@]1(O)C[C@H]2O[C@]1(C)n1c3ccccc3c3c4c(c5c6ccccc6n2c5c31)C(=O)NC4 [K252a] | – | – | – | not K252a | not K252a | not K252a | – | blockade of deoxygedunin-triggered TrkB activation (TrkB [4]): substantially blocked; blockade of deoxygedunin-provoked downstream Akt and MAPK signalings (Erk1/2 and Akt): blocked
